Source: patent publication US20170281728A1, “METHOD FOR TREATING CANCER USING TETRADRINE” (Board of Supervisors of Louisiana State University and …, priority 2016, published 2017)

B1: TRAIL: protein functioning as a ligand that induces apoptosis; cytokine binding death receptors DR4 and DR5 (protein, UniProt P50591 1-281, looked up)
Tumor necrosis factor ligand …: MAMMEVQGGPSLGQTCVLIVIFTVLLQSLCVAVTYVYFTNELKQMQDKYSKSGIACFLKEDDSYWDPNDEESMNSPCWQVKWQLRQLVRKMILRTSEETISTVQEKQQNISPLVRERGPQRVAAHITGTRGRSNTLSSPNSKNEKALGRKINSWESSRSGHSFLSNLHLRNGELVIHEKGFYYIYSQTYFRFQEEIKENTKNDKQMVQYIYKYTSYPDPILLMKSARNSCWSKDAEYGLYSIYQGGIFELKENDRIFVSVTNEHLIDMDHEASFFGAFLVG

Columns and labels:
[1] = test system: TNFR1; assay: TNFR1 mRNA expression by reverse transcriptase PCR, LNCaP cells; assay type: cell-based; conditions: 20 μM Tet, 0-48 hours, normalized to GAPDH
[2] = test system: LNCaP cells; assay: Cytotoxicity by crystal violet staining and MTT survival assay, LNCaP cells; assay type: cell-based; conditions: for response of cells following exposure to the agent alone: TRAIL or TNF-α alone
Protocol: (§1) LNCaP and C4-2b cells were used as model cell lines that show resistance to TRAIL. […] In the present study we evaluated the effects of TET alone or in combination with TRAIL and TNF-α. Prostate cancer cell lines LNCaP and LNCaP derived C4-2b were used for this study. Cell lines were treated with TET, TRAIL, or TNF-αalone or in various combinations for different time points. mRNA expression was quantitated via Real Time-PCR and changes in protein expression were analyzed by Western Blot analysis. Cytotoxicity was evaluated using the Crystal violet and MTT survival assay.
(§2) Turning to FIGS. 12-15, pretreatment of both cell lines with TET for 12 hours, followed by TRAIL and TNF-α treatment for another 24 hours increased the apoptosis inducing potential of TRAIL and TNF-α in these cells. […] For FIGS. 12 and 14, LNCap (FIG. 12) and C4-2b (FIG. 14) cells treated with or without TET, TRAIL, and TNFα were crystal violet stained. Wells are representative of at least three repeats. For FIGS. 13 and 15, LNCap (FIG. 13) and C4-2b (FIG. 15) cells were subjected to MTT assay using the same experimental plan as in FIGS. 12, 14 respectively. Data were normalized to the untreated control at the respective concentrations of TET, TRAIL and TNF-α. Data are representative of at least three repeats.

[3] = test system: prostate cancer cells; assay: Apoptosis in prostate cancer cells in vivo
[4] = test system: TNFR1; assay: TNFR1 protein level by western blotting, C4-2b cells; assay type: cell-based; conditions: 20 μM TET, 0-48 hours, GAPDH loading control
Protocol: as §1, with “assay. Turning to FIGS. 2A-2C, C4-2b cells were treated with 20 μM TET for 0-48 hours. After the treatments cells were lysed and DR4, DR5 and TNFR1 levels were detected by western blotting. Similarly, in FIGS. 3-5, densiomentry fold increase for DR4, DR5 and TNFR1 western blots is shown. The fold increase was calculated with the density of untreated LNCaP cells as a reference. GAPDH was used as loading control. Averages are representative of 3 independent experiments. Error bars represent standard deviation.” for “assay.”

[5] = test system: DR4; assay: DR4 protein level (array / western blot densitometry), LNCaP cells; assay type: cell-based; conditions: 20 μM TET, versus untreated cells
Protocol: (§3) LNCaP and C4-2b cells were used as model cell lines that show resistance to TRAIL. […] In the present study we evaluated the effects of TET alone or in combination with TRAIL and TNF-α. Prostate cancer cell lines LNCaP and LNCaP derived C4-2b were used for this study. Cell lines were treated with TET, TRAIL, or TNF-αalone or in various combinations for different time points. mRNA expression was quantitated via Real Time-PCR and changes in protein expression were analyzed by Western Blot analysis. Cytotoxicity was evaluated using the Crystal violet and MTT survival assay. […] LNCaP cells were either untreated or treated with 20 μM TET for 24 hours. Arrays were incubated with 400 μg of each cell lysate. Data shown in FIG. 1 are from a 1 minute exposure to X-ray film. […] Fold increase was calculated with the density of untreated LNCaP cells as a reference. Averages are representative of 2 independent experiments. Error bars represent standard deviation. Turning to FIGS. 2A-2C, C4-2b cells were treated with 20 μM TET for 0-48 hours. After the treatments cells were lysed and DR4, DR5 and TNFR1 levels were detected by western blotting. Similarly, in FIGS. 3-5, densiomentry fold increase for DR4, DR5 and TNFR1 western blots is shown. The fold increase was calculated with the density of untreated LNCaP cells as a reference. GAPDH was used as loading control. […]

[6] = test system: DR5; assay: DR5 mRNA expression by reverse transcriptase PCR, C4-2b cells; assay type: cell-based; conditions: 20 μM Tet, 0-48 hours, normalized to GAPDH
Protocol: as §1, with “assay. Turning to FIGS. 6-11, LNCaP and C4-2b cells were incubated in the presence of 20 μM of Tet for different time points (0-48 hours). Total RNA was prepared from the cells and cDNA was transcribed. Reverse transcriptase PCR was performed to determine the mRNA levels of DR4, DR5 and TNF-α. GAPDH was used for normalization. Each data point represents mean+/−standard deviation of three independent gels.” for “assay.”

[7] = test system: prostate cancer cells; assay: Apoptosis in prostate cancer cells in vitro; assay type: cell-based
[8] = test system: DR4; assay: DR4 mRNA expression by reverse transcriptase PCR, C4-2b cells; assay type: cell-based; conditions: 20 μM Tet, 0-48 hours, normalized to GAPDH
Protocol: as §1, with “assay. Turning to FIGS. 6-11, LNCaP and C4-2b cells were incubated in the presence of 20 μM of Tet for different time points (0-48 hours). Total RNA was prepared from the cells and cDNA was transcribed. Reverse transcriptase PCR was performed to determine the mRNA levels of DR4, DR5 and TNF-α. GAPDH was used for normalization. Each data point represents mean+/−standard deviation of three independent gels.” for “assay.”

[9] = test system: DR5; assay: DR5 mRNA expression by reverse transcriptase PCR, LNCaP cells; assay type: cell-based; conditions: 20 μM Tet, 0-48 hours, normalized to GAPDH
Protocol: as §1, with “assay. Turning to FIGS. 6-11, LNCaP and C4-2b cells were incubated in the presence of 20 μM of Tet for different time points (0-48 hours). Total RNA was prepared from the cells and cDNA was transcribed. Reverse transcriptase PCR was performed to determine the mRNA levels of DR4, DR5 and TNF-α. GAPDH was used for normalization. Each data point represents mean+/−standard deviation of three independent gels.” for “assay.”

[10] = test system: DR5; assay: DR5 protein level (array / western blot densitometry), LNCaP cells; assay type: cell-based; conditions: 20 μM TET, versus untreated cells
Protocol: as §3

[11] = test system: TNFR1; assay: TNFR1 mRNA expression by reverse transcriptase PCR, C4-2b cells; assay type: cell-based; conditions: 20 μM Tet, 0-48 hours, normalized to GAPDH
[12] = test system: C4-2b cells; assay: Cytotoxicity by crystal violet staining and MTT survival assay, C4-2b cells; assay type: cell-based; conditions: for response of cells following exposure to the agent alone: TRAIL or TNF-α alone
Protocol: as §1, §2

[13] = test system: DR5; assay: DR5 protein level by western blotting, C4-2b cells; assay type: cell-based; conditions: 20 μM TET, 0-48 hours, GAPDH loading control
Protocol: (§4) LNCaP and C4-2b cells were used as model cell lines that show resistance to TRAIL. […] In the present study we evaluated the effects of TET alone or in combination with TRAIL and TNF-α. Prostate cancer cell lines LNCaP and LNCaP derived C4-2b were used for this study. Cell lines were treated with TET, TRAIL, or TNF-αalone or in various combinations for different time points. mRNA expression was quantitated via Real Time-PCR and changes in protein expression were analyzed by Western Blot analysis. Cytotoxicity was evaluated using the Crystal violet and MTT survival assay. Turning to FIGS. 2A-2C, C4-2b cells were treated with 20 μM TET for 0-48 hours. After the treatments cells were lysed and DR4, DR5 and TNFR1 levels were detected by western blotting. Similarly, in FIGS. 3-5, densiomentry fold increase for DR4, DR5 and TNFR1 western blots is shown. The fold increase was calculated with the density of untreated LNCaP cells as a reference. GAPDH was used as loading control. Averages are representative of 3 independent experiments. Error bars represent standard deviation.

[14] = test system: TNFR1; assay: TNFR1 protein level (array / western blot densitometry), LNCaP cells; assay type: cell-based; conditions: 20 μM TET, versus untreated cells
Protocol: as §3

[15] = test system: DR4; assay: DR4 protein level by western blotting, C4-2b cells; assay type: cell-based; conditions: 20 μM TET, 0-48 hours, GAPDH loading control
Protocol: as §4

[16] = test system: DR4; assay: DR4 mRNA expression by reverse transcriptase PCR, LNCaP cells; assay type: cell-based; conditions: 20 μM Tet, 0-48 hours, normalized to GAPDH
Protocol: as §1, with “assay. Turning to FIGS. 6-11, LNCaP and C4-2b cells were incubated in the presence of 20 μM of Tet for different time points (0-48 hours). Total RNA was prepared from the cells and cDNA was transcribed. Reverse transcriptase PCR was performed to determine the mRNA levels of DR4, DR5 and TNF-α. GAPDH was used for normalization. Each data point represents mean+/−standard deviation of three independent gels.” for “assay.”

[17] = TET pretreatment 12 hours, then TRAIL and TNF-α for another 24 hours

Molecule	mRNA level of TNFR1 [1]	apoptosis inducing potential of TRAIL and TNF-α after TET pretreatment [2, 17]	apoptosis response to soluble h-TRAIL and TNF-α in combination with TET ([2]; TET treated cells in vitro)	apoptosis in prostate cancer cells [3]	protein level of TNFR1 [4]	protein level of DR4 [5]	mRNA level of DR5 [6]	apoptosis in prostate cancer cells [7]	mRNA level of DR4 [8]	mRNA level of DR5 [9]	protein level of DR5 [10]	mRNA level of TNFR1 [11]	apoptosis inducing potential of TRAIL and TNF-α after TET pretreatment [12, 17]	apoptosis response to soluble h-TRAIL and TNF-α in combination with TET ([12]; TET treated cells in vitro)	protein level of DR5 [13]	protein level of TNFR1 [14]	protein level of DR4 [15]	mRNA level of DR4 [16]	response of cells following exposure to the agent alone [2]	response of cells following exposure to the agent alone [12]
COc1ccc2cc1Oc1ccc(cc1)C[C@H]1c3cc(c(OC)cc3CCN1C)Oc1c(OC)c(OC)cc3c1[C@H](C2)N(C)CC3 [TET, Tetrandrine]	increased	increased	synergistic apoptosis response	promotes apoptosis	increased	increased	increased	promotes apoptosis	increased	increased	increased	increased	increased	synergistic apoptosis response	increased	increased	increased	increased		
TNF-α																			did not show a significant response	did not show a significant response
B1																			did not show a significant response	did not show a significant response
